Measured values: ChEMBL document CHEMBL1133591, “Potent derivatives of glucagon-like peptide-1 with pharmacokinetic properties suitable for once daily administration” (J Med Chem, 2000)
Numbered stars: 1 amine (or outer) side, 2 acyl side, 3 side chain; on linkers, the order of the positions; unused ones are H or OH. Side chains are listed from the residue outwards. Peptide text beside a SMILES is read from it. * marks the point of attachment. ξ: configuration not given here. Desaminohistidyl = O=C(CCc1c[nH]cn1)*; ξγGlu = O=C(O)C(CCC(=O)[*:2])N[*:1]; Palmitoyl = CCCCCCCCCCCCCCCC(=O)*; Octanoyl = CCCCCCCC(=O)*

Each compound was assayed against Glucagon-like peptide 1 receptor (Homo sapiens, UniProt P43220) (assay: Potency measured using recombinant human GLP-1 receptor expressed in Baby Hamster Kidney (BHK)cells).
Glucagon-like peptide 1 receptor, sequence (P43220 whole entry): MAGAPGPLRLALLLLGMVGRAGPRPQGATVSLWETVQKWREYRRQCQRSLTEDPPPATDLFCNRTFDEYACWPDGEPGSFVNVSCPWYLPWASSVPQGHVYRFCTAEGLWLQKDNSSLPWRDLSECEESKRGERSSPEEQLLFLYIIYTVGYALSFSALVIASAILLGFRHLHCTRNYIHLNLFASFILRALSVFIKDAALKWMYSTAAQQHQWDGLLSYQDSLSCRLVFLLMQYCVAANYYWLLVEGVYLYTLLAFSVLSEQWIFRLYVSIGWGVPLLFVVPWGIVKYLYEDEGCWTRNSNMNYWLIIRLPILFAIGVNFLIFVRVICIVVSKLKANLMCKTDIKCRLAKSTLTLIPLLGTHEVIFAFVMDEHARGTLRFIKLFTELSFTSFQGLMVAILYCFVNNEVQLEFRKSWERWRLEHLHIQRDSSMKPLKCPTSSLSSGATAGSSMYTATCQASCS
Format: cell-based
Work on CCCCCCCCCCCCCCCC(=O)NC(CCC(=O)NCCCC[C@H](NC(=O)[C@@H](N)Cc1c[nH]cn1)C(=O)N[C@@H](CCC(=O)O)C(=O)NCC(=O)N[C@H](C(=O)N[C@@H](Cc1ccccc1)C(=O)N[C@H](C(=O)N[C@@H](CO)C(=O)N[C@@H](CC(=O)O)C(=O)N[C@H](C(=O)N[C@@H](CO)C(=O)N[C@@H](CO)C(=O)N[C@@H](Cc1ccc(O)cc1)C(=O)N[C@@H](CC(C)C)C(=O)N[C@@H](CCC(=O)O)C(=O)NCC(=O)N[C@@H](CCC(N)=O)C(=O)N[C@@H](C)C(=O)N[C@@H](C)C(=O)N[C@@H](CCCN=C(N)N)C(=O)N[C@@H](CCC(=O)O)C(=O)N[C@@H](Cc1ccccc1)C(=O)N[C@H](C(=O)N[C@@H](C)C(=O)N[C@@H](Cc1c[nH]c2ccccc12)C(=O)N[C@@H](CC(C)C)C(=O)N[C@H](C(=O)N[C@@H](CCCN=C(N)N)C(=O)NCC(=O)N[C@@H](CCCN=C(N)N)C(=O)NCC(=O)O)C(C)C)[C@@H](C)CC)C(C)C)[C@@H](C)O)[C@@H](C)O)C(=O)O (stereo not given in full) yielded an EC50 of 1.26 nM.
With CCCCCCCCCCCCCCCC(=O)NC(CCC(=O)NCCCCC(NC(=O)CNC(=O)[C@H](CCCN=C(N)N)NC(=O)CNC(=O)[C@H](CCCN=C(N)N)NC(=O)[C@@H](NC(=O)[C@H](CC(C)C)NC(=O)[C@H](Cc1c[nH]c2ccccc12)NC(=O)[C@H](C)NC(=O)[C@@H](NC(=O)[C@H](Cc1ccccc1)NC(=O)[C@H](CCC(=O)O)NC(=O)[C@H](CCCN=C(N)N)NC(=O)[C@H](C)NC(=O)[C@H](C)NC(=O)[C@H](CCC(N)=O)NC(=O)CNC(=O)[C@H](CCC(=O)O)NC(=O)[C@H](CC(C)C)NC(=O)[C@H](Cc1ccc(O)cc1)NC(=O)[C@H](CO)NC(=O)[C@H](CO)NC(=O)[C@@H](NC(=O)[C@H](CC(=O)O)NC(=O)[C@H](CO)NC(=O)[C@@H](NC(=O)[C@H](Cc1ccccc1)NC(=O)[C@@H](NC(=O)CNC(=O)[C@H](CCC(=O)O)NC(=O)[C@H](C)NC(=O)[C@@H](N)Cc1c[nH]cn1)[C@@H](C)O)[C@@H](C)O)C(C)C)[C@@H](C)CC)C(C)C)C(=O)O)C(=O)O (stereo not given in full) the EC50 was 0.053 nM.
CCCCCCCCCCCCCCCC(=O)NC(CCC(=O)NCCCCC(NC(=O)[C@H](CCC(=O)O)NC(=O)[C@H](CCCN=C(N)N)NC(=O)CNC(=O)[C@H](CCCN=C(N)N)NC(=O)[C@@H](NC(=O)[C@H](CC(C)C)NC(=O)[C@H](Cc1c[nH]c2ccccc12)NC(=O)[C@H](C)NC(=O)[C@@H](NC(=O)[C@H](Cc1ccccc1)NC(=O)[C@H](CCC(=O)O)NC(=O)[C@H](CCCN=C(N)N)NC(=O)[C@H](C)NC(=O)[C@H](C)NC(=O)[C@H](CCC(N)=O)NC(=O)CNC(=O)[C@H](CCC(=O)O)NC(=O)[C@H](CC(C)C)NC(=O)[C@H](Cc1ccc(O)cc1)NC(=O)[C@H](CO)NC(=O)[C@H](CO)NC(=O)[C@@H](NC(=O)[C@H](CC(=O)O)NC(=O)[C@H](CO)NC(=O)[C@@H](NC(=O)[C@H](Cc1ccccc1)NC(=O)[C@@H](NC(=O)CNC(=O)[C@H](CCC(=O)O)NC(=O)[C@H](C)NC(=O)[C@@H](N)Cc1c[nH]cn1)[C@@H](C)O)[C@@H](C)O)C(C)C)[C@@H](C)CC)C(C)C)C(=O)O)C(=O)O (stereo not given in full) gave an EC50 of 0.0272 nM.
CCCCCCCCCCCCCCCCCC(=O)NC(CCC(=O)NCCCCC(NC(=O)CNC(=O)[C@H](CCCN=C(N)N)NC(=O)CNC(=O)[C@H](CCCN=C(N)N)NC(=O)[C@@H](NC(=O)[C@H](CC(C)C)NC(=O)[C@H](Cc1c[nH]c2ccccc12)NC(=O)[C@H](C)NC(=O)[C@@H](NC(=O)[C@H](Cc1ccccc1)NC(=O)[C@H](CCC(=O)O)NC(=O)[C@H](CCCN=C(N)N)NC(=O)[C@H](C)NC(=O)[C@H](C)NC(=O)[C@H](CCC(N)=O)NC(=O)CNC(=O)[C@H](CCC(=O)O)NC(=O)[C@H](CC(C)C)NC(=O)[C@H](Cc1ccc(O)cc1)NC(=O)[C@H](CO)NC(=O)[C@H](CO)NC(=O)[C@@H](NC(=O)[C@H](CC(=O)O)NC(=O)[C@H](CO)NC(=O)[C@@H](NC(=O)[C@H](Cc1ccccc1)NC(=O)[C@@H](NC(=O)CNC(=O)[C@H](CCC(=O)O)NC(=O)[C@H](C)NC(=O)[C@@H](N)Cc1c[nH]cn1)[C@@H](C)O)[C@@H](C)O)C(C)C)[C@@H](C)CC)C(C)C)C(=O)O)C(=O)O (stereo not given in full) showed an EC50 of 0.115 nM.
For CCCCCCCCCCCCCCCC(=O)NC(CCC(=O)NCCCC[C@H](NC(=O)[C@H](C)NC(=O)[C@H](C)NC(=O)[C@H](CCC(N)=O)NC(=O)CNC(=O)[C@H](CCC(=O)O)NC(=O)[C@H](CC(C)C)NC(=O)[C@H](Cc1ccc(O)cc1)NC(=O)[C@H](CO)NC(=O)[C@H](CO)NC(=O)[C@@H](NC(=O)[C@H](CC(=O)O)NC(=O)[C@H](CO)NC(=O)[C@@H](NC(=O)[C@H](Cc1ccccc1)NC(=O)[C@@H](NC(=O)CNC(=O)[C@H](CCC(=O)O)NC(=O)[C@H](C)NC(=O)CCc1c[nH]cn1)[C@@H](C)O)[C@@H](C)O)C(C)C)C(=O)N[C@@H](CCC(=O)O)C(=O)N[C@@H](Cc1ccccc1)C(=O)N[C@H](C(=O)N[C@@H](C)C(=O)N[C@@H](Cc1c[nH]c2ccccc12)C(=O)N[C@@H](CC(C)C)C(=O)N[C@H](C(=O)N[C@@H](CCCN=C(N)N)C(=O)NCC(=O)N[C@@H](CCCN=C(N)N)C(=O)NCC(=O)O)C(C)C)[C@@H](C)CC)C(=O)O (stereo not given in full), the EC50 was 0.687 nM.
Compound CCCCCCCCCC(CCCCC(=O)NCCCCC(NC(=O)CNC(=O)[C@H](CCCN=C(N)N)NC(=O)CNC(=O)[C@H](CCCN=C(N)N)NC(=O)[C@@H](NC(=O)[C@H](CC(C)C)NC(=O)[C@H](Cc1c[nH]c2ccccc12)NC(=O)[C@H](C)NC(=O)[C@@H](NC(=O)[C@H](Cc1ccccc1)NC(=O)[C@H](CCC(=O)O)NC(=O)[C@H](CCCN=C(N)N)NC(=O)[C@H](C)NC(=O)[C@H](C)NC(=O)[C@H](CCC(N)=O)NC(=O)CNC(=O)[C@H](CCC(=O)O)NC(=O)[C@H](CC(C)C)NC(=O)[C@H](Cc1ccc(O)cc1)NC(=O)[C@H](CO)NC(=O)[C@H](CO)NC(=O)[C@@H](NC(=O)[C@H](CC(=O)O)NC(=O)[C@H](CO)NC(=O)[C@@H](NC(=O)[C@H](Cc1ccccc1)NC(=O)[C@@H](NC(=O)CNC(=O)[C@H](CCC(=O)O)NC(=O)[C@H](C)NC(=O)[C@@H](N)Cc1c[nH]cn1)[C@@H](C)O)[C@@H](C)O)C(C)C)[C@@H](C)CC)C(C)C)C(=O)O)C(=O)O (stereo not given in full) has an EC50 of 0.0056 nM.
For CCCCCCCC(=O)NCCCC[C@H](NC(=O)[C@@H](NC(=O)[C@H](CC(C)C)NC(=O)[C@H](Cc1c[nH]c2ccccc12)NC(=O)[C@H](C)NC(=O)[C@@H](NC(=O)[C@H](Cc1ccccc1)NC(=O)[C@H](CCC(=O)O)NC(=O)[C@H](CCCN=C(N)N)NC(=O)[C@H](C)NC(=O)[C@H](C)NC(=O)[C@H](CCC(N)=O)NC(=O)CNC(=O)[C@H](CCC(=O)O)NC(=O)[C@H](CC(C)C)NC(=O)[C@H](Cc1ccc(O)cc1)NC(=O)[C@H](CO)NC(=O)[C@H](CO)NC(=O)[C@@H](NC(=O)[C@H](CC(=O)O)NC(=O)[C@H](CO)NC(=O)[C@@H](NC(=O)[C@H](Cc1ccccc1)NC(=O)[C@@H](NC(=O)CNC(=O)[C@H](CCC(=O)O)NC(=O)[C@H](C)NC(=O)CCc1c[nH]cn1)[C@@H](C)O)[C@@H](C)O)C(C)C)[C@@H](C)CC)C(C)C)C(=O)NCC(=O)N[C@@H](CCCN=C(N)N)C(=O)NCC(=O)O (Desaminohistidyl-AEGTFTSDVSSYLEGQAAREFIAWLVK(Octanoyl)GRG-OH), the EC50 was 0.236 nM.
CCCCCCCC(=O)NC(CCC(=O)NCCCC[C@H](NC(=O)[C@@H](NC(=O)[C@H](CC(C)C)NC(=O)[C@H](Cc1c[nH]c2ccccc12)NC(=O)[C@H](C)NC(=O)[C@@H](NC(=O)[C@H](Cc1ccccc1)NC(=O)[C@H](CCC(=O)O)NC(=O)[C@H](CCCN=C(N)N)NC(=O)[C@H](C)NC(=O)[C@H](C)NC(=O)[C@H](CCC(N)=O)NC(=O)CNC(=O)[C@H](CCC(=O)O)NC(=O)[C@H](CC(C)C)NC(=O)[C@H](Cc1ccc(O)cc1)NC(=O)[C@H](CO)NC(=O)[C@H](CO)NC(=O)[C@@H](NC(=O)[C@H](CC(=O)O)NC(=O)[C@H](CO)NC(=O)[C@@H](NC(=O)[C@H](Cc1ccccc1)NC(=O)[C@@H](NC(=O)CNC(=O)[C@H](CCC(=O)O)NC(=O)[C@H](C)NC(=O)CCc1c[nH]cn1)[C@@H](C)O)[C@@H](C)O)C(C)C)[C@@H](C)CC)C(C)C)C(=O)NCC(=O)N[C@@H](CCCN=C(N)N)C(=O)NCC(=O)O)C(=O)O (stereo not given in full) (Desaminohistidyl-AEGTFTSDVSSYLEGQAAREFIAWLVK([ξγGlu-Octanoyl])GRG-OH) was tested, and the EC50 was 0.169 nM.
Compound CCCCCCCCCCCCCCCC(=O)NC(CCC(=O)NCCCC[C@H](NC(=O)[C@@H](NC(=O)[C@H](CC(C)C)NC(=O)[C@H](Cc1c[nH]c2ccccc12)NC(=O)[C@H](C)NC(=O)[C@@H](NC(=O)[C@H](Cc1ccccc1)NC(=O)[C@H](CCC(=O)O)NC(=O)[C@H](CCCN=C(N)N)NC(=O)[C@H](C)NC(=O)[C@H](C)NC(=O)[C@H](CCC(N)=O)NC(=O)CNC(=O)[C@H](CCC(=O)O)NC(=O)[C@H](CC(C)C)NC(=O)[C@H](Cc1ccc(O)cc1)NC(=O)[C@H](CO)NC(=O)[C@H](CO)NC(=O)[C@@H](NC(=O)[C@H](CC(=O)O)NC(=O)[C@H](CO)NC(=O)[C@@H](NC(=O)[C@H](Cc1ccccc1)NC(=O)[C@@H](NC(=O)CNC(=O)[C@H](CCC(=O)O)NC(=O)[C@H](C)NC(=O)CCc1c[nH]cn1)[C@@H](C)O)[C@@H](C)O)C(C)C)[C@@H](C)CC)C(C)C)C(=O)NCC(=O)N[C@@H](CCCN=C(N)N)C(=O)NCC(=O)O)C(=O)O (stereo not given in full) (Desaminohistidyl-AEGTFTSDVSSYLEGQAAREFIAWLVK([ξγGlu-Palmitoyl])GRG-OH) has an EC50 of 2.36 nM.
In the case of CCCCCCCCCCCCCCCC(=O)NC(CCC(=O)NCCCC[C@H](NC(=O)[C@H](CO)NC(=O)[C@@H](NC(=O)[C@H](CC(=O)O)NC(=O)[C@H](CO)NC(=O)[C@@H](NC(=O)[C@H](Cc1ccccc1)NC(=O)[C@@H](NC(=O)CNC(=O)[C@H](CCC(=O)O)NC(=O)[C@H](C)NC(=O)[C@@H](N)Cc1c[nH]cn1)[C@@H](C)O)[C@@H](C)O)C(C)C)C(=O)N[C@@H](Cc1ccc(O)cc1)C(=O)N[C@@H](CC(C)C)C(=O)N[C@@H](CCC(=O)O)C(=O)NCC(=O)N[C@@H](CCC(N)=O)C(=O)N[C@@H](C)C(=O)N[C@@H](C)C(=O)N[C@@H](CCCN=C(N)N)C(=O)N[C@@H](CCC(=O)O)C(=O)N[C@@H](Cc1ccccc1)C(=O)N[C@H](C(=O)N[C@@H](C)C(=O)N[C@@H](Cc1c[nH]c2ccccc12)C(=O)N[C@@H](CC(C)C)C(=O)N[C@H](C(=O)N[C@@H](CCCN=C(N)N)C(=O)NCC(=O)N[C@@H](CCCN=C(N)N)C(=O)NCC(=O)O)C(C)C)[C@@H](C)CC)C(=O)O (stereo not given in full) (H-HAEGTFTSDVSK([ξγGlu-Palmitoyl])YLEGQAAREFIAWLVRGRG-OH), the EC50 is reported as 0.0352 nM.
